Read-outs that look alike come from different tables or passages of the source. Non-standard residues stand in square brackets, D forms with d. No end group written: not given here.
How the values were obtained:
TC-3 cell cultures = test: Cellular import of fluorescein-labeled TAT and TAT-IB1(s) peptides; type: cell-based; settings: fluorescein-labeled peptide 1 μM
Method: The ability of the L- and D-enantiomeric forms of TAT and TAT-IB1(s) peptides (“TAT-IB peptides”) to enter cells was evaluated. L-TAT, D-TAT, L-TAT-IB1(s), and D-TAT-IB1(s) peptides [SEQ ID NOs: 5, 6, 9 and 12, respectively] were labeled by N-terminal addition of a glycine residue conjugated to fluorescein. Labeled peptides (1 μM) were added to TC-3 cell cultures, which were maintained as described in Example 3. At predetermined times cells were washed with PBS and fixed for five minutes in ice-cold methanol-acetone (1:1) before being examined under a fluorescence microscope. Fluorescein-labeled BSA (1 μM, 12 moles/mole BSA) was used as a control.
Little to no signal was present at 48 hours.
Fluorescent signals from these all-D retro-inverso peptides were still very strong 1 week later, and the signal was only slightly diminished at 2 weeks post treatment.

JNK = settings: Dickens et al. 1997; cited from earlier work
[1] = test system: patients after ocular surgery; test: Clinical Phase II, post-surgery intraocular inflammation: safety
Method: The criteria for evaluation of safety were: • a. Visual acuity by ETDRS method • b. Slit Lamp examination findings • c. The results of the ophthalmic fundus examination • d. Intra Ocular Pressure (IOP) measurements • e. Vital signs (blood pressure (BP), pulse rate (PR) and rhythm) • f. The results of the hematology and chemistry laboratory tests • g. The occurrence of Adverse Events • h. Presence (or not) of XG-102 in plasma 1 hour after the administration of study treatment in a subset of patients (approximately 30).
An AE is therefore any unfavorable and unintended sign, symptom or disease temporally associated with the use of a medicinal product, whether or not considered related to the medicinal product.
A Suspected Unexpected Serious Adverse Reaction (SUSAR) was defined as a suspected adverse reaction related to the treatment that is both unexpected (i.e. not consistent with the expected outcomes of the study treatment being administered) and serious.
Patients were analyzed as treated, i.e. according to the treatment which they received. The safety set was the primary analysis set for the safety analysis.
The present study was a double-blind study. All patients who were randomized and for whom the sub-conjunctival injection was started are included in the safety analysis by dose group. […] If the study treatment eye drops were stopped prematurely (i.e. before day 21), the patients concerned continued follow-up until day 28, in accordance with the study protocol.
Investigators assessed (in a blinded manner) the relationship of each reported AE to any of the study treatments. An event was considered to be related to study treatment if the Investigator ticked either ‘possible’ or ‘probable’ as the reply to this question.

TC-3 cells = test: IL-1 induced pancreatic beta-cell death; type: cell-based; settings: single addition 1 μM, two days with IL-1
Method: Inhibition of IL-1 induced pancreatic beta-cell death by the D-TAT-IB1(s) peptide was analyzed. […] Apoptotic cells were then counted after two days of incubation with IL-1 by use of Propidium Iodide and Hoechst 33342 nuclear staining. A minimum of 1,000 cells were counted for each experiment. Standard Error of the Means (SEM) are indicated, n=5. […] Long term inhibition of IL-1P induced cell-death by the D-TAT-IB1 peptide was also analyzed. […] Apoptotic cells were then counted after 15 days of incubation with IL-1 by use of propidium iodide and Hoechst 33342 nuclear staining. […] A minimum of 1.000 cells were counted for each experiment.

[2] = test system: female Sprague-Dawley rats, CYP-induced cystitis; test: CYP-induced acute cystitis, intravesical treatment; type: in vivo, rat; settings: 50 mg/mL i.ves., 24 h post-CYP
Method: (§1) This preclinical model is well-used to test therapeutic approaches for the treatment of interstitial cystitis/painful bladder syndrome (IC/PBS).
(§2) Animals were acclimatized to the laboratory conditions for at least 3 days before the start of any experiments. The animals were allocated to the following four experimental groups (n=10 animals per group):
(§3) To induce acute cystitis, a single i.p. injection of CYP at a dose of 150 mg/kg in a final volume of 5 mL/kg was performed. Control rats received physiological saline under the same experimental conditions as CYP (final volume of 5 mL/kg, i.p.).
(§4) On the day of each experiment, weight of rats was recorded.
Standardized conditions including fixed time-of-day (a.m. to minimize the potential circadian variations in the behaviours responses) and single-experimenter testing of all animals were applied to minimize variability behavior-based pain testing. Visceral pain including allodynia and hyperalgesia was evaluated by applying to the lower abdomen, close to the urinary bladder, a set of 8 calibrated von Frey filaments of increasing forces (1, 2, 4, 6, 8, 10, 26 and 60 g) with an interstimulus interval of 5 seconds. Prior testing, the abdominal area designed for mechanical stimulation of each animal was shaved. Animals were then placed on a raised wire mesh floor under individual transparent Plexiglas box and acclimatized for at least 30 minutes before starting the von Frey test. Filaments were then applied 1-2 seconds through the mesh floor with enough strength to cause the filament to slightly bend. Each filament was tested 3 times. Care was taken to stimulate different areas within the lower abdominal region in the vicinity of the urinary bladder to avoid desensitization.
Urinary bladders were rapidly collected and cleaned from lipoid tissue. […] Finally, wall thickness was measured using a digital caliper by placing the bladder wall between the two outside jaws.

[3] = test system: female Sprague-Dawley rats, CYP-induced cystitis; test: CYP-induced acute cystitis, intravenous treatment; type: in vivo, rat; settings: XG-102 2 mg/kg i.v. or ibuprofen 10 mg/kg i.v., 24 h post-CYP
Method: as §1, §2, §3, §4
Standardized conditions including fixed time-of-day (a.m. to minimize the potential circadian variations in the behaviours responses) and single-experimenter testing of all animals were applied to minimize variability behavior-based pain testing. Visceral pain including allodynia and hyperalgesia was evaluated by applying to the lower abdomen, close to the urinary bladder, a set of 8 calibrated von Frey filaments of increasing forces (1, 2, 4, 6, 8, 10, 26 and 60 g) with an interstimulus interval of 5 seconds. Prior testing, the abdominal area designed for mechanical stimulation of each animal was shaved. […]

[4] = test system: Sprague-Dawley albino rats, light-induced photoreceptor cell death; type: in vivo; settings: PBN
Description: The aim of this study was to investigate the dose effect of XG-102 on light-induced photoreceptor cell death.
50 male Rat (Sprague-Dawley (albinos rat); approximately 8 weeks; 200-250 g (on ordering)) have been used. Rats are most commonly used in this experimental model. Animals were examined before study, and particular attention was paid to the eyes. Animals were held in observation for 2 weeks following their arrival. Animals were observed daily for signs of illness. Only healthy animals with no ocular abnormalities were accepted for use in experiments. Animals were housed individually in standard cages (420×270×190 mm)^ii. All animals were housed under identical environmental conditions. The temperature was held at 22±2° C. and the relative humidity at 55±10%. Rooms were continuously ventilated (15 times per hour). A cycle of 12 hours light (200-300 lx) and 12 hours darkness was automatically controlled. These parameters were continuously controlled and recorded. Throughout the study, animals had free access to food and water. They were fed a standard dry pellet diet. Tap water was available ad libitum from plastic bottles.
Forty-eight (48) rats were randomly divided into six (6) groups of eight (8) animals each. Test item (XG-102: 30 mg/ml, 3 mg/ml, and 0.3 mg/ml) and vehicle (0.9% NaCl) were administered by intravitreal injection in right eyes the day before induction. The reference (Phenyl-N-test-Butylnitrone (PBN) (50 mg/kg)) and vehicle were intraperitoneally injected 30 min before induction then, 3 times during 12 hours of light exposition, then once after induction. Animals were placed in constant light (7000 lux) for 24 h. Electroretinograms (ERG) were recorded before light treatment and on days 9, 16 and 23 after induction. Eyes were then taken for histology and outer nuclear layer (ONL) thickness assessment. The table below summarizes the allocation of animals in treatment groups:
For the intravitreal injection animals were anesthetized by intramuscular injection of a mixture of xylazine/ketamine. Test item (5 μl) and vehicle (5 μl) were injected in the right eye. The injection was performed under an operating microscope in the supratemporal area at pars plana using a 33G-needle mounted on a 50 μl Hamilton. The filled syringe was mounted into the UltraMicroPump III to achieve accurate injection in microliter range. Reference and vehicle were injected intraperitoneally at a dose volume of 2.5 ml/kg using a 30G-needle mounted on a 1 ml-syringe.
Light Exposure: The rats that had been dark-adapted overnight were exposed for 24 hours to a continuous white fluorescent light (7000 Ix) in clear plastic cages. Each cage contained one rat. After exposure, the rats returned to rearing cyclic light conditions.
ERG was recorded before induction and 7, 14 and 21 days after cessation of exposure (Days 9, 16 and 23) on right eyes of dark-adapted and anesthetized animals. The latency times (for a- and b-wave) and the a-wave and b-wave amplitudes were measured for each ERG; the latency times were expressed as millisecond and the a-wave and b-wave as a percentage of the baseline value obtained before light exposure. 15 min before measurement 10 μl Mydriaticum® (0.5% tropicamide) were instilled for pupillary dilatation.
ERG Parameters: • Color: white maximum. • Maximum intensity: 2.6 cd·s/m^2 (0 dB); Duration 0.24 ms; number of flash: 1. • Filter: 50 Hz. • Impedence Threshold: 90 kΩ.
Measurement of the ONL Thickness: After ERG testing, animal was euthanized by an overdose of pentobarbital and the right eyes were enucleated, fixed and embedded in paraffin. Sections (5 μm thick) were performed along the vertical meridian and stained with Trichrome-Masson. The vertical meridian included the optic nerve.
Group mean values and standard deviation were calculated. A statistical Mann and Whitney test was used to evaluate the differences between pair-wise groups. For comparison between time-point into each vehicle groups, a Friedman test was used. […]

[5] = Dexamethasone group, blinded assessment

Compound: GRKKRRQRRR (Description of sequence Peptide L-TAT (see Table 1))
- entry into cells (TC-3 cell cultures): efficiently and rapidly (less than five minutes) entered cells

Compound: IPSPSVEEPHKHRPTTLRLTTLGAQDS (Description of sequence Peptide IB2-long (see Table 1))
- efficiency in binding JNK relative to c-Jun or ATF2 (JNK): approximately 100 fold

Compound: C[C@@H]1C[C@H]2[C@@H]3CCC4=CC(=O)C=C[C@]4(C)[C@@]3(F)[C@@H](O)C[C@]2(C)[C@@]1(O)C(=O)CO [Dexamethasone, reference compound]
- Reported AEs by severity: Mild ([1]; Dexamethasone dose group): 42 (76.4%) number of events (% of reported events)
- Reported AEs by severity: Moderate ([1]; Dexamethasone dose group): 9 (16.4%) number of events (% of reported events)
- Reported AEs by severity: Severe ([1]; Dexamethasone dose group): 4 (7.3%) number of events (% of reported events)
- AEs considered by the Investigator to be related to Dexamethasone [1, 5]: 2 (3.6%) Total # events (%)
- AEs considered by the Investigator to be related to XG-102 [1, 5]: 13 (23.64%) Total # events (%)
- Intraocular pressure increased, patients ([1]; dexamethasone): 14%
- events in SOC EYE DISORDERS ([1]; dexamethasone): 30 events
- patients with SAEs ([1]; dexamethasone): 2 patients
- patients with events in SOC EYE DISORDERS ([1]; dexamethasone): 16 (32%)

Compound: GRKKRRQRRRPPRPKRPTTLNLFPQVPRSQD [L-TAT-IB1(s)]
- entry into cells (TC-3 cell cultures): efficiently and rapidly (less than five minutes) entered cells

Compound: TDQSRPVQPFLNLTTPRKPRYTDPPRRRQRRKKRG ([dT][dD][dQ][dS][dR][dP][dV][dQ][dP][dF][dL][dN][dL][dT][dT][dP][dR][dK][dP][dR][dY][dT][dD][dP][dP][dR][dR][dR][dQ][dR][dR][dK][dK][dR]G) [D-TAT-IB1]
- IL-1 induced apoptosis (TC-3 cells): decreased IL-1 induced apoptosis to a similar extent as L-TAT-IB peptides

Compound: CC(C)Cc1ccc(C(C)C(=O)O)cc1 (stereo not shown) [ibuprofen]
- haemorrhage scores [2]: no significant change was observed regarding haemorrhage scores
- nociceptive scores [2]: significant decrease of nociceptive scores
- urinary bladder wall thickness [2]: a significant decrease was observed in urinary bladder wall thickness
- nociceptive threshold ([2]; vs vehicle): Nociceptive threshold was significantly increased by ibuprofen treatment
- nociceptive scores [3]: significantly decrease nociceptive scores
- nociceptive threshold [3]: Nociceptive threshold was significantly increased by ibuprofen treatment

Compound: CC(C)(C)[N+]([O-])=Cc1ccccc1 [PBN, Phenyl-N-tert-Butylnitrone]
- recovery of the b-wave (% of baseline) ([4]; Day 9): 100%
- recovery of the b-wave (% of baseline) ([4]; Day 16): 103.6%
- decrease of ONL thickness vs untreated eyes ([4]; Day 23): 16%
- recovery of the a-wave (% of baseline) ([4]; Day 23): 76.2%
- recovery of the b-wave (% of baseline) ([4]; Day 23): 102.4%

Compound: PGTGCGDTYRPKRPTTLNLFPQVPRSQDT (Description of sequence peptide IB1-long (see Table 1))
- efficiency in binding JNK relative to c-Jun or ATF2 (JNK): approximately 100 fold

Source: patent US11779628B2, “Use of cell-permeable peptide inhibitors of the JNK signal transduction pathway for the treatment of various diseases” (Xigen Inflammation Ltd., priority 2014, dated 2023)
